What was measured:
[1] = target: T1, human recombinant adrenergic α2A receptor (Homo sapiens, UniProt P08913); experiment: Radioligand binding assay, adrenergic α2A ([3H]MK-912); conditions: compound at 0.1 μM; 1 nM [3H]MK-912; Sf9 cells; read-out: Percentage inhibition of ligand binding, Adrenergic α2A
T1 construct: expressed in transfected cells; host or cells: insect Sf9 cells
T1 sequence (P08913 1-465): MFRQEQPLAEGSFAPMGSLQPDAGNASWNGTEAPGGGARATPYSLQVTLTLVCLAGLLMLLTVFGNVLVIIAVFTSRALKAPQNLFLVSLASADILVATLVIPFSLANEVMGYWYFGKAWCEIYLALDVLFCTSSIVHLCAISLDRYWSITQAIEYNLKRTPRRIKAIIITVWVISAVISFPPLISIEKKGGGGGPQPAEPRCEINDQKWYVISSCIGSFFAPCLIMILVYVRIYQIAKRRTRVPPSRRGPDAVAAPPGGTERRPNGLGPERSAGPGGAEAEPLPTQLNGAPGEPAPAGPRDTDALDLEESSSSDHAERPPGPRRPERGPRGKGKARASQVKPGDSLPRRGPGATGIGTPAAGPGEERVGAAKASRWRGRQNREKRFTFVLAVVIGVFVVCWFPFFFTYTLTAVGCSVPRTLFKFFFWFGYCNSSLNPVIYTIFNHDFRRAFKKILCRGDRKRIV
Protocol: To evaluate in radioligand binding assays the activity of compounds, human recombinant adrenergic α2A receptor expressed in insect Sf9 cells (Uhlen, S. et al, J. Pharmacol. Exp. Ther. 271:1558, 1994) in a modified Tris-HCl buffer (50 mM Tris-HCl, pH 7.4, 12.5 mM MgCl2, 2 mM EDTA) was used. Compounds were incubated with 1 nM [^3H]MK-912 for 60 min at 25° C. MK912 is (2S-trans)-1,3,4,5′,6,6′,7,12b-octahydro-1′,3′-dimethyl-spiro[2H-benzofuro[2,3-a]quinolizine-2,4′(1′H)-pyrimidin]-2′(3′H)-one hydrochloride. Non-specific binding was estimated in the presence of 10 μM WB-4101 (2-(2,6-Dimethoxyphenoxyethyl)aminomethyl-1,4-benzodioxane hydrochloride). Receptor proteins were filtered and washed, the filters were then counted to determine [^3H]MK-912 specifically bound. Compounds were screened at 1 μM or lower, using 1% DMSO as vehicle. Compounds were tested in this biochemical assay and percent inhibition of specific binding was determined. Biochemical assay results are presented as the percent inhibition of specific binding in Tables B1A-B1D.

[2] = target: T2, human recombinant adrenergic α2B receptor (Homo sapiens, UniProt P18089); experiment: Radioligand binding assay, adrenergic α2B ([3H]Rauwolscine); conditions: compound at 0.1 μM; 2.5 nM [3H]Rauwolscine; CHO-K1 cells; read-out: Percentage inhibition of ligand binding, Adrenergic α2B
T2 construct: expressed in transfected cells; host or cells: Chinese hamster ovary (CHO) K1 cells
T2 sequence (P18089 1-450): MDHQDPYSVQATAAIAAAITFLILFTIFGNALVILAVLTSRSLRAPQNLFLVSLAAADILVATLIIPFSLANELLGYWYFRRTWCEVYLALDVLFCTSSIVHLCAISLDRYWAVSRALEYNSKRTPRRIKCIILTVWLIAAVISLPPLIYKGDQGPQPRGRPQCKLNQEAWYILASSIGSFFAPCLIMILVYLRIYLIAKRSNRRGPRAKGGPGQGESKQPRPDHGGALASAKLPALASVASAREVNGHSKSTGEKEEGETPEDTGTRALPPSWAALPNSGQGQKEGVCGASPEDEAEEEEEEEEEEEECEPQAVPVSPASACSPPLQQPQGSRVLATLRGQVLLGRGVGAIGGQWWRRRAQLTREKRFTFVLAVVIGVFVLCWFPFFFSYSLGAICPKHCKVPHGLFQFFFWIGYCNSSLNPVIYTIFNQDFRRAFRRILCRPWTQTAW
Protocol: To evaluate in radioligand binding assays the activity of compounds, human recombinant adrenergic α2B receptor expressed in Chinese hamster ovary (CHO) K1 cells (Uhlen, S. et al, Eur. J. Pharmacol. 343(1):93, 1998) in a modified Tris-HCl buffer (50 mM Tris-HCl, pH 7.4, 12.5 mM MgCl2, 1 mM EDTA, 0.2% BSA) was used. Compounds were incubated with 2.5 nM [^3H]Rauwolscine for 60 min at 25° C. Non-specific binding was estimated in the presence of 10 μM Prazosin. Receptor proteins were filtered and washed, the filters were then counted to determine [^3H]Rauwolscine specifically bound. Compounds were screened at 1 μM or lower, using 1% DMSO as vehicle. Compounds were tested in this biochemical assay and percent inhibition of specific binding was determined. Biochemical assay results are presented as the percent inhibition of specific binding in Tables B1A-B1D.

[3] = target: T3, rat adrenergic α1B receptor (Rattus norvegicus, UniProt P15823); experiment: Radioligand binding assay, adrenergic α1B ([3H]Prazosin); conditions: compound at 0.1 μM; 0.25 nM [3H]Prazosin; Wistar rat liver; read-out: Percentage inhibition of ligand binding, Adrenergic α1B
T3 construct: rat adrenergic α1B receptor obtained from Wistar Rat liver; from tissue; host or cells: Wistar rat liver
T3 sequence (P15823 1-515): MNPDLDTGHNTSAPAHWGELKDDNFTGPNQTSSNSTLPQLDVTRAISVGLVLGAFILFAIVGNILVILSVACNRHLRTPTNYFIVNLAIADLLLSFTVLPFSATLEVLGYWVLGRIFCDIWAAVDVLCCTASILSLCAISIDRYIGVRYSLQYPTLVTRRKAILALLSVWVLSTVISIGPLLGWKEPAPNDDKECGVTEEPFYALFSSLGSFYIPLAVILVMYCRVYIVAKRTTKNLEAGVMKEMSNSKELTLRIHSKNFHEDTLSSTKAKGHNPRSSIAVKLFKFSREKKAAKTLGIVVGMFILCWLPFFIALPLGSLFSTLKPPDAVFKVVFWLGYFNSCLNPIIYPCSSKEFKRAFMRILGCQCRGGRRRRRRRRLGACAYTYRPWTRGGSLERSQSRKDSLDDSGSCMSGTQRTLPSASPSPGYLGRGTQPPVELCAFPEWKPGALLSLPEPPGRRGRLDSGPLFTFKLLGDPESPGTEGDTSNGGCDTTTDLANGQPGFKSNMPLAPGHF
Protocol: To evaluate in radioligand binding assays the activity of compounds, rat adrenergic α1B receptor obtained from Wistar Rat liver (Garcia-S'ainz, J. et al, Biochem. Biophys. Res. Commun. 186:760, 1992; Michel, A. et al, Br. J. Pharmacol. 98:883, 1989) in a modified Tris-HCl buffer (50 mM Tris-HCl buffer, pH 7.4, 0.5 mM EDTA) was used. Compounds were incubated with 0.25 nM [^3H]Prazosin for 60 min at 25° C. Non-specific binding was estimated in the presence of 10 μM phentolamine. Receptor proteins were filtered and washed, the filters were then counted to determine [^3H]Prazosin specifically bound. Compounds were screened at 1 μM or lower, using 1% DMSO as vehicle. Compounds were tested in this biochemical assay and percent inhibition of specific binding was determined. Biochemical assay results are presented as the percent inhibition of specific binding in Tables B1A-B1D.

[4] = target: T4, human recombinant adrenergic α1D receptor (Homo sapiens, UniProt P25100); experiment: Radioligand binding assay, adrenergic α1D ([3H]Prazosin); conditions: compound at 0.1 μM; 0.6 nM [3H]Prazosin; HEK-293 cells; read-out: Percentage inhibition of ligand binding, Adrenergic α1D
T4 construct: expressed in transfected cells; host or cells: human embryonic kidney (HEK-293) cells
T4 sequence (P25100 1-572): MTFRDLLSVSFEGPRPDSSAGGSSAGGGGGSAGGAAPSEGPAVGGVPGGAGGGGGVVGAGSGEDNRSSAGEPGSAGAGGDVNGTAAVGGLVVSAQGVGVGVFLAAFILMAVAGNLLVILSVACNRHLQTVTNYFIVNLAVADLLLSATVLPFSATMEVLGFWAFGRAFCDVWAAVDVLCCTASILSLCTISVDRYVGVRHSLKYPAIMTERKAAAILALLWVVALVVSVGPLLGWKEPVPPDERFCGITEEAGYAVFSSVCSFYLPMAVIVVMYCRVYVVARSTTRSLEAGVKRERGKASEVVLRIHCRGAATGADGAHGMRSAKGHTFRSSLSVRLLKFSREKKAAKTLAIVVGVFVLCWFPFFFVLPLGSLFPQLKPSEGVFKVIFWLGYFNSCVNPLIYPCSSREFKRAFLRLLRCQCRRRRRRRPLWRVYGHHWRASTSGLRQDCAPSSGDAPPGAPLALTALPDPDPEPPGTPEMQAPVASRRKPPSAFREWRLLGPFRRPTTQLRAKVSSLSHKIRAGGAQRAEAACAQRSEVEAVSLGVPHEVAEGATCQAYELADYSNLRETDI
Protocol: To evaluate in radioligand binding assays the activity of compounds of the invention, human recombinant adrenergic α1D receptor expressed in human embryonic kidney (HEK-293) cells (Kenny, B. et al, Br. J. Pharmacol. 115(6):981, 1995) in a 50 mM Tris-HCl buffer, pH 7.4, was used. Compounds were incubated with 0.6 nM [3H]Prazosin for 60 min at 25° C. Non-specific binding was estimated in the presence of 10 μM phentolamine. Receptor proteins were filtered and washed, the filters were then counted to determine [3H]Prazosin specifically bound. Compounds were screened at 1 μM or lower, using 1% DMSO as vehicle. Biochemical assay results are presented as the percent inhibition of specific binding in Tables B1A-B1D.

Row | Compound | inhibition at 0.1 µM [1] [%] | inhibition at 0.1 µM [2] [%] | inhibition at 0.1 µM [3] [%] | inhibition at 0.1 µM [4] [%]
1 | Cc1cc(-c2ccc(F)cc2)c2[nH]c3c(c2c1)CN(C)CC3 [Compound A7] | 10 | -9 | 2 | 4
2 | Cc1cc2c3c(c1)c1c(n3CC2c2ccc(C)nc2)CCN(C)C1 (centres unmarked) [Compound B210] |  | 14 |  | 
